Holding throughout (assay type): functional
The subject of test [1] is Mythimna separata. The experiment in a line: Insecticidal activity against Mythimna separata (Oriental armyworm) fourth-instar larvae infested compound pre-treated corn leaves assessed as larvicidal activity at 100 mg/L measured 4 days post treatment.
Test [2] relates to Mythimna separata. Briefly: Insecticidal activity against Mythimna separata (Oriental armyworm) fourth-instar larvae infested compound pre-treated corn leaves assessed as larvicidal activity at 50 mg/L measured 4 days post treatment.
For test [3], the system named is Plutella xylostella. The experiment in a line: Insecticidal activity against Plutella xylostella (diamondback moth) […] larvae infested on compound pre-treated fresh cabbage leaves assessed as larvicidal activity at 200 mg/L measured 3 days post treatment.
Test [4] deals with Culex pipiens pallens. The experiment in a line: Insecticidal activity against Culex pipiens pallens (mosquito) fourth-instar larvae assessed as larvicidal activity at 2 mg/L measured 8 days post treatment. As to conditions: 192 h.
In test [5] the test system is Mythimna separata. Briefly: Insecticidal activity against Mythimna separata (Oriental armyworm) fourth-instar larvae infested compound pre-treated corn leaves assessed as larvicidal activity at 25 mg/L measured 4 days post treatment.
Test [6] concerns Culex pipiens pallens. Briefly: Insecticidal activity against Culex pipiens pallens (mosquito) fourth-instar larvae assessed as larvicidal activity at 1 mg/L measured 8 days post treatment. Conditions: 192 h.
Test [7] has as its system Plutella xylostella. Briefly: Insecticidal activity against Plutella xylostella (diamondback moth) […] larvae infested on compound pre-treated fresh cabbage leaves assessed as larvicidal activity at 20 mg/L measured 3 days post treatment.
For test [8], the system named is Mythimna separata. Briefly: Insecticidal activity against Mythimna separata (Oriental armyworm) fourth-instar larvae infested compound pre-treated corn leaves assessed as larvicidal activity at 10 mg/L measured 4 days post treatment.
Test [9] concerns Culex pipiens pallens. The experiment in a line: Insecticidal activity against Culex pipiens pallens (mosquito) fourth-instar larvae assessed as larvicidal activity at 0.5 mg/L measured 8 days post treatment. Conditions: 192 h.
Test [10] deals with Plutella xylostella. Briefly: Insecticidal activity against Plutella xylostella (diamondback moth) […] larvae infested on compound pre-treated fresh cabbage leaves assessed as larvicidal activity at 5 mg/L measured 3 days post treatment.
Test [11] deals with Plutella xylostella. Briefly: Insecticidal activity against Plutella xylostella (diamondback moth) […] larvae infested on compound pre-treated fresh cabbage leaves assessed as larvicidal activity at 0.2 mg/L measured 3 days post treatment.
For test [12], the system named is Mythimna separata. Briefly: Insecticidal activity against Mythimna separata (Oriental armyworm) fourth-instar larvae infested compound pre-treated corn leaves assessed as larvicidal activity at 2.5 mg/L measured 4 days post treatment.
Test [13] deals with Mythimna separata. Briefly: Insecticidal activity against Mythimna separata (Oriental armyworm) fourth-instar larvae infested compound pre-treated corn leaves assessed as larvicidal activity at 5 mg/L measured 4 days post treatment.
Test [14] relates to Plutella xylostella. Briefly: Insecticidal activity against Plutella xylostella (diamondback moth) […] larvae infested on compound pre-treated fresh cabbage leaves assessed as larvicidal activity at 2 mg/L measured 3 days post treatment.
Test [15] concerns Plutella xylostella. Briefly: Insecticidal activity against Plutella xylostella (diamondback moth) […] larvae infested on compound pre-treated fresh cabbage leaves assessed as larvicidal activity at 0.02 mg/L measured 3 days post treatment.
For test [16], the system named is Mythimna separata. Briefly: Insecticidal activity against Mythimna separata (Oriental armyworm) fourth-instar larvae infested compound pre-treated corn leaves assessed as larvicidal activity at 200 mg/L measured 4 days post treatment.

One may read the mortality as the share of the test organisms that died.

In the case of `O=C(NC(=O)c1c(F)cccc1F)Nc1ccc(C2=NOC3(CCCCC3)C2)cc1`, the mortality at 100 µg/mL in [1] was 100%. For the same molecule, in [2], the mortality at 50 µg/mL was 40%. Also, in test [3], the mortality at 200 µg/mL is 20%. Also, the mortality at 2 µg/mL in test [4] turned out to be 70%.

As for `O=C(NC(=O)c1c(F)cccc1F)Nc1ccc(C2=NOC3(CCCC3)C2)cc1`, in test [1], the mortality at 100 µg/mL was determined as 100%. Also, in test [2], the mortality at 50 µg/mL came to 60%. Moreover, in [3], the mortality at 200 µg/mL came out at 10%. In addition, the mortality at 2 µg/mL in test [4] is 80%.

For the molecule `O=C(NC(=O)c1c(F)cccc1F)Nc1ccc(C2=NOC3CCCC23)cc1` (configuration not stated), in test [1], the mortality at 100 µg/mL came out at 100%. For the same molecule, the mortality at 50 µg/mL in test [2] is 0%. Moreover, in [3], the mortality at 200 µg/mL was 0%. The mortality at 2 µg/mL in test [4] came out at 50%.

Consider `O=C(NC(=O)c1c(F)cccc1F)Nc1ccc(C2=NOC3CC23)cc1` (configuration not stated), for which the mortality at 100 µg/mL in [1] is 100%. In addition, the mortality at 50 µg/mL in test [2] stood at 0%. In [3], the mortality at 200 µg/mL amounted to 10%. Also, in test [4], the mortality at 2 µg/mL came to 60%.

On to `O=C(NC(=O)c1c(F)cccc1F)Nc1ccc(C2CC(c3ccc(F)cc3)=NO2)cc1` (configuration not stated), for which the mortality at 25 µg/mL in [5] turned out to be 100%. Besides, the mortality at 1 µg/mL in test [6] stood at 100%. The mortality at 50 µg/mL in test [2] worked out at 100%. Also, the mortality at 200 µg/mL in test [3] amounted to 100%. Also, the mortality at 20 µg/mL in [7] amounted to 70%. Moreover, in [4], the mortality at 2 µg/mL was determined as 100%. Moreover, the mortality at 10 µg/mL in [8] is 60%. In addition, the mortality at 0.5 µg/mL in [9] is 70%. For the same molecule, the mortality at 5 µg/mL in test [10] stood at 0%.

In the case of `CC(C)(C)C1=NOC(c2ccc(NC(=O)NC(=O)c3c(F)cccc3F)cc2)C1` (configuration not stated), in test [5], the mortality at 25 µg/mL worked out at 100%. Moreover, the mortality at 1 µg/mL in [6] was determined as 80%. Besides, the mortality at 50 µg/mL in [2] turned out to be 100%. In [3], the mortality at 200 µg/mL turned out to be 100%. The mortality at 20 µg/mL in [7] came out at 100%. For the same molecule, the mortality at 2 µg/mL in test [4] worked out at 100%. Further, the mortality at 10 µg/mL in test [8] was found to be 40%. The mortality at 5 µg/mL in test [10] stood at 30%.

Consider `CC(C)(C)c1cc(-c2ccc(NC(=O)NC(=O)c3c(F)cccc3F)cc2)no1`, for which the mortality at 0.2 µg/mL in test [11] is 60%. Also, in [12], the mortality at 2.5 µg/mL came to 0%. Also, the mortality at 5 µg/mL in test [13] and in test [10] was 100% throughout. Moreover, the mortality at 2 µg/mL is 40% in [4] and 100% in test [14]. The mortality at 10 µg/mL in test [8] is 100%. The mortality at 0.02 µg/mL in test [15] is 30%.

As to `O=C(NC(=O)c1c(F)cccc1F)Nc1ccc(-c2cc(COCC(F)(F)F)on2)cc1`, in [1], the mortality at 100 µg/mL turned out to be 100%. Also, the mortality at 50 µg/mL in [2] was 20%. The mortality at 200 µg/mL in test [3] was 30%; in test [16], 100%. The mortality at 20 µg/mL in test [7] was found to be 0%. For the same molecule, the mortality at 2 µg/mL in test [4] amounted to 40%.

As to `CCCCOCc1cc(-c2ccc(NC(=O)NC(=O)c3c(F)cccc3F)cc2)no1`, the mortality at 100 µg/mL in test [1] amounted to 100%. In addition, the mortality at 50 µg/mL in [2] is 80%. For the same molecule, the mortality at 200 µg/mL in test [3] is 0%; in test [16], 100%. Further, in test [4], the mortality at 2 µg/mL was found to be 60%.

With `Cc1cc(-c2ccc(NC(=O)NC(=O)c3c(F)cccc3F)cc2)no1`, in test [1], the mortality at 100 µg/mL came out at 100%. Besides, in test [2], the mortality at 50 µg/mL is 20%. The mortality at 200 µg/mL in test [3] was 10%; in test [16], 100%. The mortality at 2 µg/mL in [4] amounted to 20%.

With `CCCCCCCCc1cc(-c2ccc(NC(=O)NC(=O)c3c(F)cccc3F)cc2)no1`, the mortality at 100 µg/mL in [1] amounted to 100%. The mortality at 50 µg/mL in test [2] turned out to be 20%. For the same molecule, the mortality at 200 µg/mL in test [3] was determined as 10%; in test [16], 100%. Also, the mortality at 2 µg/mL in [4] was found to be 40%.
